Columns and labels:
[1] = system: CFA (Complete Freunds Adjuvant) Induced Hypersensitivity in Rat; assay: CFA induced hypersensitivity in rat, weight bearing (incapacitance tester); type: in vivo, rat (male Sprague Dawley)
Experimental: (3S)-Tetrahydrofuran-3-yl (4S)-4-isopropyl-1,4,6,7-tetrahydro-5H-imidazo[4,5-c]-pyridine-5-carboxylate was investigated (FIG. 1) in the CFA thermal hyperalgesia model, which is an established model for inflammatory pain. […] In more detail:
(§1) Assessment of the anti-hyperalgesic properties of (3S)-tetrahydrofuran-3-yl (4S)-4-isopropyl-1,4,6,7-tetrahydro-5H-imidazo[4,5-c]pyridine-5-carboxylate mesylate salt was determined through measurement of weight bearing following CFA induced hypersensitivity. Naive rats distribute their body weight equally between the two hind paws. However, when the injected (left) hind paw is painful, the weight is re-distributed so that less weight is put on the affected paw (decrease in weight bearing on injured paw). Weight bearing through each hind limb was measured using a rat incapacitance tester (Linton Instruments, UK). Rats were placed in the incapacitance tester with the hind paws on separate sensors and the average force exerted by both hind limbs was recorded over 4 seconds. The injection of CFA also induces an oedema that can be assessed by paw volume; this is measured using a plethysmometer. The rat's hind paw is placed into the cylinder containing a solution and the volume of displaced liquid determines the paw volume.
Naive male, Sprague Dawley rats were acclimatised with food and water available ad libitum. Habituation to the incapacitance tester was performed. Baseline weight bearing and paw volume recordings were taken prior to induction of insult. Inflammatory hypersensitivity was induced by intraplantar injection of CFA (100 ul of 1 mg/ml solution) into the left hind paw. A pre-treatment weight bearing and paw volume measurement was taken to assess hypersensitivity 23 hours post-CFA. Animals were then ranked and randomised according to CFA window in a Latin square design. (3S)-Tetrahydrofuran-3-yl (4S)-4-isopropyl-1,4,6,7-tetrahydro-5H-imidazo[4,5-c]pyridine-5-carboxylate mesylate salt was then given at 150, 250 and 500 mg/kg p.o. (dosed in water at 2 mL/Kg, pH ˜5-6), alongside vehicle and reference group (indomethacin), n=9-10 per group. Weight bearing was assessed in all groups 1, 2 and 4 hours post compound administration. Paw volume was assessed 4 hours post compound administration. Data was analysed by comparing treatment groups to control group at each time point.
Weight bearing (g) readings were taken for both right and left hind paws and the difference calculated. Data is expressed as % reversal of the hypersensitivity to pain, (post dose reading−pre dose reading)/(naïve reading−pre dose reading)×100, where naive weight bearing difference−pre dose weight bearing difference is defined as the CFA window to be reversed. Statistical analysis was conducted by means of repeated measures ANOVA followed by Planned comparison test using InVivoStat (invivostat.co.uk), (p<0.05 considered significant).

[2] = system: CFA induced oedema, hind paw; assay: CFA induced oedema in rat, paw volume (plethysmometer); type: in vivo, rat (male Sprague Dawley); settings: 150, 250 and 500 mg/kg p.o., 4 hours post compound administration
Experimental: as §1
Naive male, Sprague Dawley rats were acclimatised with food and water available ad libitum. […] Weight bearing was assessed in all groups 1, 2 and 4 hours post compound administration. Paw volume was assessed 4 hours post compound administration. Data was analysed by comparing treatment groups to control group at each time point.

| Compound | reversal of hypersensitivity (weight bearing) ([1]; 150 mg/kg p.o., rat, 1, 2 and 4 hours post dose) | reversal of hypersensitivity (weight bearing) ([1]; 250 mg/kg p.o., rat, 4 hours post dose) | reversal of hypersensitivity (weight bearing) ([1]; 500 mg/kg p.o., rat, 1, 2 and 4 hours post dose) | time of maximum effect on hypersensitivity ([1]; 500 mg/kg p.o., rat, post dose) | effect on paw volume [2] | efficacy compared with benchmark indomethacin in the CFA thermal hyperalgesia model ([1]; FIG. 1, summary statement) | efficacy in the CFA thermal hyperalgesia model (inflammatory pain) ([1]; FIG. 1, summary statement) |
| --- | --- | --- | --- | --- | --- | --- | --- |
| CC(C)[C@H]1c2nc[nH]c2CCN1C(=O)O[C@H]1CCOC1.CS(=O)(=O)O [(3S)-Tetrahydrofuran-3-yl (4S)-4-isopropyl-1,4,6,7-tetrahydro-5H-imidazo[4,5-c]pyridine-5-carboxylate, Methananesulfonic Acid Salt] | no significant reversal of hypersensitivity at any time point | significant reversal | effective at all time points | 4 h | No effect |  |  |
| CC(C)[C@H]1c2[nH]cnc2CCN1C(=O)O[C@H]1CCOC1 [(3S)-Tetrahydrofuran-3-yl (4S)-4-isopropyl-1,4,6,7-tetrahydro-5H-imidazo[4,5-c]pyridine-5-carboxylate] |  |  |  |  |  | comparably in efficacy to the gold standard benchmark indomethacin | effective in a dose-dependent manner |

Source: patent US20180104223A1, “TREATMENT OF PAIN” (PROXIMAGEN LIMITED, priority 2015, published 2018)
